Experimental data published in US20240391958A1, “KEANUMYCINS AND USES THEREOF IN MEDICINE AND PLANT PROTECTION” (Leibniz-Institut für Naturstoff-Forschung und …, priority 2023, published 2024).
In brackets after ≈: the same amount, converted by molar mass. Several values for one entry are separate records, joined by “and”; a condition that tells them apart may be missing. Equal entries are not always repeated. Where two headings read alike, the source gives them in different places. Where a SMILES comes first, the peptide text is derived from it. Bridges are numbered along the chain shown (N, C = ends). [ ]: non-standard residue; d: D form. The star is where a group is joined. X1 = CCCCCCCCCCCC[C@@H](O)[C@@H](O)CC(=O)*; Asp(3S-OH) = N[C@H](C(=O)O)[C@H](O)C(=O)O; Thr(4-Cl) = N[C@H](C(=O)O)[C@H](O)CCl; aThr = C[C@H](O)[C@H](N)C(=O)O; d(hSer) = N[C@H](CCO)C(=O)O; dDab = NCC[C@@H](N)C(=O)O; Dab = NCC[C@H](N)C(=O)O; Dhb = C/C=C(\N)C(=O)O

Experiments:
A. castellanii = assay: Amoebicidal activity against Acanthamoeba (resazurin assay); assay type: cell-based; conditions: 96 h, 28 °C, average of two experiments
Protocol: (§1) Amoebicidal activity of keanumycin A against Acanthamoeba was determined by culturing A. castellanii or A. comandoni in 96-well plates (Sarstedt) in 100 μL PYG medium (ATCC Medium 712; https://www.atcc.org) containing 1% DMSO (Carl Roth) and a specified amount of compound (starting from 50 μM; 2-fold serial dilution) in triplicates at 28° C. After 96 h the cell viability was determined using a resazurin assay. Therefore, 20 μL of a 1 mM resazurin sodium (Sigma) solution in water was added per single well before it was allowed to incubate for another 3 h at 28° C. Using a plate reader (Tecan Life Sciences, excitation 560 nm and emission 590 nm) the fluorescence emission was determined. The fluorescence (including standard deviation) was plotted against the logarithmic concentration of the compound and the IC50 value was determined using PRISM (GraphPad, Version 5.03).

A. comandoni = assay: as above; assay type: cell-based; conditions: 96 h, 28 °C, average of two experiments
Protocol: as §1

[1] = tested on: Aspergillus fumigatus ATCC 204305; assay: Broth dilution method (EUCAST); assay type: cell-based; conditions: Aspergillus fumigatus
Protocol: (§2) The activity assay was performed using the broth dilution method according to the EUCAST DEFINITIVE DOCUMENT E.DEF 9.3.2. B. cinerea and A. solani were incubated according to the Methods for dilution antimicrobial susceptibility tests for bacteria that grow aerobically by the NCCLS. Keanumycin A was dissolved in DMSO.

Candida auris 2021-353 = assay: Broth dilution method (EUCAST); assay type: cell-based
Protocol: as §2

[2] = tested on: Candida glabrata 2021-359; assay: Broth dilution method (EUCAST); assay type: cell-based
Protocol: as §2

[3] = tested on: Candida parapsilosis ATCC 22019; assay: Broth dilution method (EUCAST); assay type: cell-based; conditions: Lodderomyces parapsilosis
Protocol: as §2

[4] = tested on: Candida tropicalis 2021-360; assay: Broth dilution method (EUCAST); assay type: cell-based
Protocol: as §2

[5] = tested on: Fusarium proliferatum 2021-361; assay: Broth dilution method (EUCAST); assay type: cell-based
Protocol: as §2

[6] = tested on: Rhizopus arrhizus 2021-366; assay: Broth dilution method (EUCAST); assay type: cell-based
Protocol: as §2

[7] = tested on: Scedosporium apiospermum 2016-079; assay: Broth dilution method (EUCAST); assay type: cell-based
Protocol: as §2

[8] = tested on: Alternaria solani SF003858; assay: Broth dilution method (NCCLS); assay type: cell-based; conditions: 22 °C
Protocol: as §2

[9] = tested on: Botrytis cinerea SF011406; assay: Broth dilution method (NCCLS); assay type: cell-based
Protocol: as §2

[10] = tested on: human vaginal epithelial cells A431; assay: Toxicity to uninfected vaginal epithelial cells (LDH); assay type: cell-based; conditions: A431 cells without infection, 24 hours
Protocol: FIGS. 7A-7B show in 7A) Keanumycin A protected human vaginal epithelial cells in C. albicans infection model. Micrograph depicts % damage to human vaginal epithelial cells A431 (y-axis) in the presence of keanumycin A at varied concentrations (x-axis) as estimated by LDH cytotoxicity assay after 24 hours of infection or treatment. LDH absorbance was normalized to C. albicans infected and uninfected controls. Keanumycin A protected vaginal cells from damage by C. albicans at a narrow concentration range from 4-8 μg/ml (black line). Keanumycin A was toxic to vaginal cells at concentrations above 8 μg/ml (grey line) (N=3). […] Vaginal epithelial cells were lysed after 24-hour infection, and fungal viability was measured by XTT absorbance, normalized to C. albicans infected and uninfected controls (N=2) […]
Overnight culture of C. albicans strain SC5314 grown in YPD at 30° C., shaking at 180 RPM was harvested, washed twice with PBS. […] Epithelial damage was measured 24 hours after infection by collecting and diluting the supernatant 1:10 in PBS and measuring the lactate dehydrogenase (LDH) activity with the Roche Cytotoxicity Detection Kit (LDH) as per manufacturer's instructions. The absorbance (490 nm) values are represented as percentage damage, which is normalized to the low control, where medium only is 0% damage, and high control, where C. albicans infection is 100% damage. […]

C. albicans [11] = assay: Genome-wide microarray, transcription rate change; assay type: cell-based, Candida albicans; conditions: sublethal concentration, 1-h exposure, vs nontreated
C. albicans [12] = assay: Membrane permeabilization assay using SYTOX Green; assay type: cell-based, Candida albicans; conditions: 4 μg mL-1 in 1% DMSO
Text: Only isolated cells are stained, which can be explained by the fact that the dye can also be used to distinguish dead from live cells. Scale bar=100 μm.
To finally examine if keanumycin A is a membrane-active compound, the inventors performed a membrane permeabilization assay using SYTOX Green (FIG. 6). As a cell-impermeant dye, SYTOX Green enters the cell upon loss of membrane integrity and binds to DNA, which results in fluorescently stained cells. […] Thus, the keanumycins are membrane-active compounds that disturb the structure of the fungal […].

In the case of `C/C=C1\NC(=O)[C@H]([C@H](C)O)NC(=O)[C@H](CCN)NC(=O)[C@@H](CCO)NC(=O)CNC(=O)[C@@H](CCN)NC(=O)[C@@H](NC(=O)C[C@H](O)[C@H](O)CCCCCCCCCCCC)COC(=O)[C@H]([C@H](O)CCl)NC(=O)[C@H]([C@H](O)C(=O)O)NC1=O` [Keanumycin A, keanumycin A] (X1-S[dDab]G[d(hSer)][Dab][aThr][Dhb][Asp(3S-OH)][Thr(4-Cl)]; ester 1-C), the IC50 (A. castellanii) is reported as 2000 nM, the IC50 (A. comandoni) is reported as 3100 nM and the MIC ([1]; ATCC204305) is reported as 3.42 µM and 4 µg/mL. The MIC ([1]; ATCC204305, read-out: Result of the broth dilution method assay (MIC)) was 4 µg/mL (≈ 3.43 µM), the MIC (Candida auris 2021-353; Candidozyma auris, 2021353) was 0.86 µM and 1 µg/mL and the MIC (Candida auris 2021-353; Candidozyma auris, 2021353, read-out: Result of the broth dilution method assay (MIC)) was 0.5 to 1 µg/mL (≈ 0.429 to 0.857 µM). The MIC ([2]; Nakaseomyces glabratus, 2021359) was 0.86 µM and 1 µg/mL, the MIC ([2]; Nakaseomyces glabratus, 2021359, read-out: Result of the broth dilution method assay (MIC)) was 1 µg/mL (≈ 0.857 µM) and the MIC ([3]; ATCC22019) was 0.86 µM and 1 µg/mL. For the same molecule, the MIC ([3]; ATCC22019, read-out: Result of the broth dilution method assay (MIC)) was 1 µg/mL (≈ 0.857 µM), the MIC ([4]; Candida tropicalis, 2021360) was 0.86 µM and 1 µg/mL and the MIC ([4]; Candida tropicalis, 2021360, read-out: Result of the broth dilution method assay (MIC)) was 1 µg/mL (≈ 0.857 µM). For the same molecule, the MIC [5] was > 6.85 µM and > 8 µg/mL, the MIC ([5]; Fusarium proliferatum, 2021361, read-out: Result of the broth dilution method assay (MIC)) was > 8 µg/mL and the MIC ([6]; Rhizopus arrhizus, 2021366) was > 6.85 µM and > 8 µg/mL. For the same molecule, the MIC ([6]; Rhizopus arrhizus, 2021366, read-out: Result of the broth dilution method assay (MIC)) was > 8 µg/mL, the MIC ([7]; Scedosporium apiospermum, 2016079) was 6.85 µM and 8 µg/mL and the MIC ([7]; Scedosporium apiospermum, 2016079, read-out: Result of the broth dilution method assay (MIC)) was 8 µg/mL (≈ 6.86 µM). The MIC [8] was 1.07 µM and 1.25 µg/mL, the MIC ([9]; Botrytis cinerea SF011406, NCCLS, 22 °C) was 0.08 µg/mL and the MIC ([9]; Botrytis cinerea, SF011406, Botrytis cinerea, NCCLS, 22 °C, read-out: MIC) was 0.07 µM. The MIC ([9]; Botrytis cinerea, SF011406, Botrytis cinerea, read-out: MIC) was 0.069 µM, the “concentrations toxic to vaginal cells” value [10] was “above 8 μg/ml” and the “transcription rate change, ERG3” value (C. albicans [11]; ergosterol biosynthesis) was −1.83 log2-fold change. For the same molecule, the “transcription rate change, IPT1” value (C. albicans [11]; sphingolipid biosynthesis) was −0.44 log2-fold change, the “transcription rate change, ORM1” value (C. albicans [11]; sphingolipid biosynthesis) was 0.55 log2-fold change and the “transcription rate change, SCS7/FAH1” value (C. albicans [11]; sphingolipid biosynthesis) was −1.10 log2-fold change. The “transcription rate change, SYR2/SUR2” value (C. albicans [11]; sphingolipid biosynthesis) was 0.66 log2-fold change, the “membrane permeabilization (SYTOX Green staining)” value (C. albicans [12]) was “permeabilizes the cell wall of the fungi” and the “membrane permeabilization (SYTOX Green staining)” value (C. albicans [12]; listed as keanumycin A) was “staining of all cells”.
